Test results published in patent US10131652B2, “Pyrimidinyloxy benzene derivatives as herbicides” (E. I. DU PONT DE NEMOURS AND COMPANY, priority 2014, dated 2018).
Read-outs that look alike come from different tables or passages of the source.

How the values were obtained:
Test in all cases: Test F pre-/postemergence plant response
Format in all cases: in vivo
[1] = test system: barnyardgrass (Echinochloa crus-galli); details: Echinochloa crus-galli, scale 0 to 100, read-out: Plant response rating, Barnyardgrass
How it was run: (§1)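 In a greenhouse, compounds carried in a non-phytotoxic surfactant-containing solvent mixture were applied to soil at planting and to young 1- to 4-leaf plants. About two to three weeks (14 to 21 days) afterward, each species was compared with controls and rated visually from 0 to 100.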

[2] = test system: hairy beggarticks (Bidens pilosa); details: Bidens pilosa, scale 0 to 100, read-out: Plant response rating, Beggarticks
How it was run: as §1

[3] = test system: nightshade (eastern black nightshade, Solanum ptycanthum); details: Solanum, pre-emergence, scale 0 to 100, read-out: Plant response rating, Nightshade
How it was run: as §1

[4] = test system: yellow nutsedge (Cyperus esculentus); details: Cyperus, pre-emergence, scale 0 to 100, read-out: Plant response rating, Nutsedge, Yellow
How it was run: as §1

[5] = test system: Italian ryegrass (Lolium multiflorum); details: Lolium multiflorum, scale 0 to 100, read-out: Plant response rating, Ryegrass, Italian; for pest or weed control at 16 g/ha: 16 g ai/ha; for pest or weed control at 31 g/ha: 31 g ai/ha; for pest or weed control at 125 g/ha: 125 g ai/ha
How it was run: as §1

[6] = test system: ragweed (common ragweed, Ambrosia elatior); details: Ambrosia artemisiifolia, pre-emergence, scale 0 to 100, read-out: Plant response rating, Ragweed
How it was run: as §1

kochia (Kochia scoparia) = details: Bassia scoparia, pre-emergence, scale 0 to 100, read-out: Plant response rating, Kochia
How it was run: as §1

[7] = test system: velvetleaf (Abutilon theophrasti); details: Abutilon theophrasti, pre-emergence, scale 0 to 100, read-out: Plant response rating, Velvetleaf
How it was run: as §1

[8] = test system: arrowleaf sida (Sida rhombifolia); details: Sida rhombifolia, scale 0 to 100, read-out: Plant response rating, Arrowleaf Sida
How it was run: as §1

[9] = test system: large (Lg) crabgrass (Digitaria sanguinalis); details: Digitaria sanguinalis, pre-emergence, scale 0 to 100, read-out: Plant response rating, Crabgrass, Large
How it was run: as §1

[10] = test system: surinam grass (Brachiaria decumbens); details: Urochloa decumbens, pre-emergence, scale 0 to 100, read-out: Plant response rating, Surinam Grass
How it was run: as §1

[11] = post-emergence, 8 g ai/ha Postemergence
[12] = post-emergence, 16 g ai/ha Postemergence
[13] = post-emergence, 31 g ai/ha Postemergence
[14] = post-emergence, 62 g ai/ha Postemergence
[15] = post-emergence, 125 g ai/ha Postemergence
[16] = pre-emergence, 8 g ai/ha Preemergence
[17] = pre-emergence, 16 g ai/ha Preemergence
[18] = pre-emergence, 31 g ai/ha Preemergence
[19] = pre-emergence, 62 g ai/ha Preemergence
[20] = pre-emergence, 125 g ai/ha Preemergence

## FC(F)c1cc(-c2ccccc2Oc2ncc(Cl)cn2)no1 [Compound 35, 5-chloro-2-[2-[5-(difluoromethyl)-3-isoxazolyl]phenoxy]pyrimidine]
[1]; [11]
  pest or weed control at 8 g/ha: 0%
[1]; [12]
  pest or weed control at 16 g/ha: 0%
[1]; [13]
  pest or weed control at 31 g/ha: 0%
[1]; [14]
  pest or weed control at 62 g/ha: 10%
[1]; [15]
  pest or weed control at 125 g/ha: 20%
[1]; [16]
  pest or weed control at 8 g/ha: 0%
[1]; [17]
  pest or weed control at 16 g/ha: 0%
[1]; [18]
  pest or weed control at 31 g/ha: 20%
[1]; [19]
  pest or weed control at 62 g/ha: 10%
[1]; [20]
  pest or weed control at 125 g/ha: 65%
[2]; [11]
  pest or weed control at 8 g/ha: 50%
[2]; [12]
  pest or weed control at 16 g/ha: 50%
[2]; [13]
  pest or weed control at 31 g/ha: 60%
[2]; [14]
  pest or weed control at 62 g/ha: 65%
[2]; [15]
  pest or weed control at 125 g/ha: 70%
[2]; [16]
  pest or weed control at 8 g/ha: 0%
[2]; [17]
  pest or weed control at 16 g/ha: 0%
[2]; [18]
  pest or weed control at 31 g/ha: 20%
[2]; [19]
  pest or weed control at 62 g/ha: 20%
[2]; [20]
  pest or weed control at 125 g/ha: 50%
[3]; 8 g ai/ha Preemergence
  pest or weed control at 8 g/ha: 75%
[3]; 16 g ai/ha Preemergence
  pest or weed control at 16 g/ha: 95%
[3]; 31 g ai/ha Preemergence
  pest or weed control at 31 g/ha: 98%
[3]; 125 g ai/ha Preemergence
  pest or weed control at 125 g/ha: 100%
[3]; Preemergence
  pest or weed control at 62 g/ha: 98%
[4]; 8 g ai/ha Preemergence
  pest or weed control at 8 g/ha: 0%
[4]; 16 g ai/ha Preemergence
  pest or weed control at 16 g/ha: 0%
[4]; 31 g ai/ha Preemergence
  pest or weed control at 31 g/ha: 0%
[4]; 125 g ai/ha Preemergence
  pest or weed control at 125 g/ha: 35%
[4]; Preemergence
  pest or weed control at 62 g/ha: 10%
[5]; [11]
  pest or weed control at 8 g/ha: 0%
[5]; post-emergence, Postemergence
  pest or weed control at 16 g/ha: 0%
  pest or weed control at 31 g/ha: 0%
  pest or weed control at 125 g/ha: 0%
[5]; post-emergence, 62 g ai/ha, Postemergence
  pest or weed control at 62 g/ha: 0%
[5]; [16]
  pest or weed control at 8 g/ha: 0%
[5]; pre-emergence, Preemergence
  pest or weed control at 16 g/ha: 0%
  pest or weed control at 31 g/ha: 15%
  pest or weed control at 125 g/ha: 70%
  pest or weed control at 62 g/ha: 65%
[6]; 8 g ai/ha Preemergence
  pest or weed control at 8 g/ha: 0%
[6]; 16 g ai/ha Preemergence
  pest or weed control at 16 g/ha: 0%
[6]; 31 g ai/ha Preemergence
  pest or weed control at 31 g/ha: 0%
[6]; 125 g ai/ha Preemergence
  pest or weed control at 125 g/ha: 70%
[6]; Preemergence
  pest or weed control at 62 g/ha: 40%
Kochia (Kochia scoparia); 8 g ai/ha Preemergence
  pest or weed control at 8 g/ha: 0%
Kochia (Kochia scoparia); 16 g ai/ha, Preemergence
  pest or weed control at 16 g/ha: 40%
Kochia (Kochia scoparia); 31 g ai/ha, Preemergence
  pest or weed control at 31 g/ha: 85%
Kochia (Kochia scoparia); 125 g ai/ha, Preemergence
  pest or weed control at 125 g/ha: 100%
Kochia (Kochia scoparia); Preemergence
  pest or weed control at 62 g/ha: 100%
[7]; 8 g ai/ha Preemergence
  pest or weed control at 8 g/ha: 40%
[7]; 16 g ai/ha Preemergence
  pest or weed control at 16 g/ha: 70%
[7]; 31 g ai/ha Preemergence
  pest or weed control at 31 g/ha: 70%
[7]; 125 g ai/ha Preemergence
  pest or weed control at 125 g/ha: 100%
[7]; Preemergence
  pest or weed control at 62 g/ha: 100%
[8]; [11]
  pest or weed control at 8 g/ha: 60%
[8]; [12]
  pest or weed control at 16 g/ha: 80%
[8]; [13]
  pest or weed control at 31 g/ha: 95%
[8]; [14]
  pest or weed control at 62 g/ha: 98%
[8]; [15]
  pest or weed control at 125 g/ha: 98%
[8]; [16]
  pest or weed control at 8 g/ha: 50%
[8]; [17]
  pest or weed control at 16 g/ha: 80%
[8]; [18]
  pest or weed control at 31 g/ha: 100%
[8]; [19]
  pest or weed control at 62 g/ha: 100%
[8]; [20]
  pest or weed control at 125 g/ha: 100%
[9]; 8 g ai/ha Preemergence
  pest or weed control at 8 g/ha: 0%
[9]; 16 g ai/ha Preemergence
  pest or weed control at 16 g/ha: 60%
[9]; 31 g ai/ha Preemergence
  pest or weed control at 31 g/ha: 75%
[9]; 62 g ai/ha Preemergence
  pest or weed control at 62 g/ha: 75%
[9]; 125 g ai/ha Preemergence
  pest or weed control at 125 g/ha: 100%
[10]; 8 g ai/ha Preemergence
  pest or weed control at 8 g/ha: 0%
[10]; 16 g ai/ha Preemergence
  pest or weed control at 16 g/ha: 0%
[10]; 31 g ai/ha Preemergence
  pest or weed control at 31 g/ha: 0%
[10]; 125 g ai/ha Preemergence
  pest or weed control at 125 g/ha: 35%
[10]; Preemergence
  pest or weed control at 62 g/ha: 20%
